Laboratory results: PubChem BioAssay AID194 (DTP/NCI, 2004)
Records with an inconclusive call do not appear. The calls were made as follows: active = survival T/C of 150% or more; inactive = T/C below 125% in these data.

System: BDF1 mice, B16 melanoma s.c., survival/tumor T/C
Assay: NCI In Vivo Anticancer Drug Screen. Data for tumor model B16 Melanoma (subcutaneous) in B6D2F1 (BDF1) mice
Conditions: endpoint: median survival time, higher = longer survival
Procedure: The antitumor activity of compounds was measured in mice bearing transplantable tumors. Survival or tumor size were measured and the results are expressed as the measurement made in the treated group (T) divided by the measurement made in the vehicle treated control group (C). The tumor model used in this assay is B16 Melanoma (subcutaneous) in B6D2F1 (BDF1) mice

Measured: T/C

CCC(c1ccc(OC(=O)Cc2ccc(N(CCCl)CCCl)cc2)cc1)C(CC)c1ccc(OC(=O)Cc2ccc(N(CCCl)CCCl)cc2)cc1 (stereo not drawn)
inactive: dose: 80.0 mg/kg/injection, schedule: Q01DX009 (ip), vehicle: saline with Tween-80 102 % of control | dose: 120.0 mg/kg/injection, schedule: Q01DX009 (ip), vehicle: saline with Tween-80 106 % of control | dose: 180.0 mg/kg/injection, schedule: Q01DX009 (ip), vehicle: saline with Tween-80 93 % of control | dose: 270.0 mg/kg/injection, schedule: Q01DX009 (ip), vehicle: saline with Tween-80 102 % of control | dose: 405.0 mg/kg/injection, schedule: Q01DX009 (ip), vehicle: saline with Tween-80 90 % of control

COC(=O)C(N)CCCCNc1ccc2c(cc1=O)C(NC(C)=O)CCc1cc(OC)c(OC)c(OC)c1-2 (stereo not drawn)
inactive: dose: 53.0 mg/kg/injection, schedule: Q01DX009 (ip), vehicle: saline 118 % of control | dose: 80.0 mg/kg/injection, schedule: Q01DX009 (ip), vehicle: saline 90 % of control | dose: 120.0 mg/kg/injection, schedule: Q01DX009 (ip), vehicle: saline 106 % of control | dose: 180.0 mg/kg/injection, schedule: Q01DX009 (ip), vehicle: saline 90 % of control

CC1(C)N=C(N)N=C(N)N1c1ccc(CCCCc2cccc(S(=O)(=O)F)c2)c(Cl)c1
inactive: dose: 12.0 mg/kg/injection, schedule: Q01DX009 (ip), vehicle: saline 121 % of control | dose: 18.0 mg/kg/injection, schedule: Q01DX009 (ip), vehicle: saline 98 % of control

CCCCS(=N)(=O)CC[C@H](N)C(=O)O (stereo partly drawn)
inactive: dose: 444.0 mg/kg/injection, schedule: Q04HX003 (ip), vehicle: saline 104 % of control | dose: 888.0 mg/kg/injection, schedule: Q04HX003 (ip), vehicle: saline 100 % of control | dose: 1776.0 mg/kg/injection, schedule: Q04HX003 (ip), vehicle: saline 102 % of control

Nc1c(Cl)c(Cl)nc(C(=O)O)c1Cl
inactive: dose: 3.12 mg/kg/injection, schedule: Q02DX009 (ip), vehicle: Klucel (hydroxypropylcellulose) (HPC) 108 % of control | dose: 6.25 mg/kg/injection, schedule: Q01DX015 (sc), vehicle: other 105 % of control | dose: 6.25 mg/kg/injection, schedule: Q02DX009 (ip), vehicle: Klucel (hydroxypropylcellulose) (HPC) 97 % of control | dose: 12.5 mg/kg/injection, schedule: Q01DX015 (sc), vehicle: other 105 % of control | dose: 25.0 mg/kg/injection, schedule: Q01DX015 (sc), vehicle: other 101 % of control | dose: 50.0 mg/kg/injection, schedule: Q02DX009 (ip), vehicle: Klucel (hydroxypropylcellulose) (HPC) 94 % of control | dose: 100.0 mg/kg/injection, schedule: Q02DX009 (ip), vehicle: Klucel (hydroxypropylcellulose) (HPC) 90 % of control | dose: 200.0 mg/kg/injection, schedule: Q02DX009 (ip), vehicle: Klucel (hydroxypropylcellulose) (HPC) 87 % of control

O=C1NC2(CCCCC2)C(=O)N1CCN(CCCl)CCCl
inactive: dose: 1.5 mg/kg/injection, schedule: Q01DX009 (ip), vehicle: saline with Tween-80 106 % of control | dose: 3.0 mg/kg/injection, schedule: Q01DX009 (ip), vehicle: saline with Tween-80 96 % of control | dose: 6.0 mg/kg/injection, schedule: Q01DX009 (ip), vehicle: saline with Tween-80 118 % of control

COc1cccc2c1C(=O)c1c(O)c3c(c(O)c1C2=O)CC(O)(C(C)=O)CC3OC1CC(N)C(O)C(C)O1 (stereo not drawn)
inactive: dose: 5.8 mg/kg/injection, schedule: Q01DX009 (ip), vehicle: saline 107 % of control | dose: 11.7 mg/kg/injection, schedule: Q01DX009 (ip), vehicle: saline 103 % of control | dose: 23.4 mg/kg/injection, schedule: Q01DX009 (ip), vehicle: saline 120 % of control
